Experimental data published in US12053606B2, “Opioid overdose rescue device” (Celero Systems, Inc., priority 2019, dated 2024).

Legend:
respiratory rate = test: Induced morphine overdose and rescue with nalmefene in anesthetized porcine animal model; assay type: in vivo
Text: The following examples provides data collected from an opioid overdose rescue device during overdose and rescue animal studies. The opioid overdose rescue device included a substrate having a PPG sensor, accelerometer and microcontroller disposed thereon, which was coupled to a substrate having a radio, chip antenna, power management components, and magnet sensor (so the device could be turned on and off without direct contact) disposed thereon.
FIGS. 6A and 6B show an example PPG sensor recording from the intestines in an anesthetized porcine animal model during an overdose and recovery study. The PPG sensor was endoscopically placed into the small intestine and anchored to intestinal tissue with 2 endoclips—one on each side of the device.
Baseline data was collected for 8 minutes. Then 60 mg of IV morphine was administered over 3 minutes (20 mg each minute for 3 minutes). The respiratory rate as measured by the lab vitals monitoring equipment decreased eventually to zero, indicated respiratory failure. One minute after respiratory failure, 50 mg nalmefene in solution was administered endoscopically directly into the intestines. Within 4 minutes of nalmefene delivery breathing recovered and eventually returned to pre-overdose levels. […] In certain aspects, a method of mitigating the effects of an opioid overdose could involve determining when a measured respiratory rate drops below a threshold (e.g. 8 breaths per minute) for a duration of time (e.g. 30 seconds) and commanding release of a rescue medication.
In a different study than referenced in FIG. 7, the device was endoscopically placed and anchored in the animal's intestine in a similar manner. […] As with the PPG data, a measured respiratory rate obtained from the motion sensing (i.e. accelerometer) data in the intestine could be used to detect an opioid overdose and trigger delivery of a rescue medication.

[1] = system: opiate receptors—μ, κ and δ; settings: cited from earlier work
[2] = cited from earlier work

With CN1CC[C@]23c4c5ccc(O)c4O[C@H]2[C@@H](O)C=C[C@H]3[C@H]1C5 [morphine] the “respiratory rate after morphine (lab vitals monitor)” value (respiratory rate; 60 mg IV morphine over 3 minutes, zero indicates respiratory failure) was “zero”.

In the case of C=C1CC[C@@]2(O)[C@H]3Cc4ccc(O)c5c4[C@@]2(CCN3CC2CC2)[C@H]1O5 [nalmefene], the “antagonist activity at opiate receptor types” value [1] is given as “antagonist activity against all three types of opiate receptors”, the oral bioavailability [2] is given as 41% and the “time after nalmefene delivery until breathing recovered” value (respiratory rate; PPG sensor study (FIG. 7), 50 mg nalmefene in solution endoscopically into the intestines, one minute after respiratory failure from 60 mg IV morphine) is given as ≤ 4 min. For the same compound, the “time after nalmefene delivery until respiratory rate restored to normal levels” value (respiratory rate; accelerometer study (FIG. 8), 50 mg nalmefene in solution endoscopically delivered after respiratory failure from 60 mg IV morphine) was 14 min.
